From a melting point compilation (Tetko et al.; mined from patent text by program, amines drawn as free bases though some values may be those of a salt)

SMILES	melting point [°C]
CCCc1nc2c(N)nc3cccnc3c2n1CC1(O)CC1	199 to 200
CC(=N)c1ccccc1O	137 to 139
CCOC(=O)c1cn(CC)c2nc(C=O)c(O)cc2c1=O	243 to 245
CC1(C(=O)P(=O)(c2ccccc2)c2ccccc2)CCCCC1	80
CCc1nnc2c(Cl)nc3ccc(Cl)cc3n12	> 250
O=C1NC(=S)NC(=O)C1=Cc1cccc2ccccc12	280
OC1C(COC2CC2)OC(n2cnc3c(NCc4cccc(I)c4)nc(Cl)nc32)C1O (centres undefined)	94 to 96
COC(=O)C1=C(C)NC(C)=C(P(=O)(OC)OC)C1c1cccc([N+](=O)[O-])c1 (centres undefined)	221 to 223
CCc1ncc2c3c(ccc2n1)OCC(CN1CC=C(c2c[nH]c4ccccc24)CC1)O3 (centres undefined)	203 to 211
O=C(NC(=O)c1cc(F)c(Cl)nc1Cl)NC1CC1	171 to 173
Cc1nnc(NCCN(C)C)nc1C	46 to 49
COc1cccc2c(=O)c(C(C)=O)c[nH]c12	287 to 289
CC(C)(C)CCCC(=O)Cn1ccnc1	45 to 46
O=c1cc(CN2CCOCC2)oc(-c2ccc(O)cc2)c1	162 to 164
COc1cc2ncnc(Nc3cccc(Cl)c3F)c2cc1O	265 to 268
CCOC(=O)c1cc2cc(C3=NNC(=O)CC3)ccc2[nH]1	235 to 237

SMILES	melting point [°C]
ClCCCc1nnnn1C1CCCCC1	82 to 85
NC(=O)c1ccc(C(F)(F)F)cc1N1CCc2nc(NS(=O)(=O)c3cc(C(F)(F)F)cc(C(F)(F)F)c3)sc2C1	225 to 228
[N-]=[N+]=NC1CCc2ccccc2NC1=O (centres undefined)	142 to 145
OCc1cnoc1-c1ccc2c(c1)OCO2	92 to 93
CC1(C)Cc2sccc2C1N (centres undefined)	80
CCOC(=O)C1=C(C)NC(C)=C(C(=O)OC)C1c1ccccc1Cl (centres undefined)	125 to 127
Cc1nc(C(F)F)ccc1C(=O)C1=C(NS(=O)(=O)c2ccccc2)C(C)(C)C(=O)C(C)(C)C1=O	130
CC(=O)Oc1ccc(N)cc1C(=O)O	133 to 136
CC[C@H](C)[C@H](NC(=O)/C=C1/c2ccccc2C(=S)N[C@H]1[C@@H](C)CC)C(=O)N[C@H](C(=O)OC)[C@@H](C)CC	178 to 181
CNCc1ccc(C2CCN(c3cc4c(cc3F)c(=O)c(C(=O)O)cn4C3CC3)C2)cc1 (centres undefined)	235 to 237
Fc1ccc2c(C3CCN(CC4COc5ccccc5O4)CC3)noc2c1 (centres undefined)	86 to 87
CCn1cc(C(=O)O)c(=O)c2cc(F)c(N3CC4CC3CN4)c(F)c21 (centres undefined)	233 to 236
CC1(C)CC(NC(=O)CCC(=O)NC2CC(C)(C)N(OC3CCCCC3)C(C)(C)C2)CC(C)(C)N1OC1CCCCC1	230 to 234
COc1ccc(C(=O)Nc2c(Cl)cncc2Cl)c2c1OCCCCO2	115 to 117
CSc1ccc2c(c1)CC(C)(C)C(=O)N2	154
C[C@@H]1CN(C(=O)[C@@](C)(O)C(F)(F)F)[C@@H](C)CN1S(=O)(=O)c1ccc(C#N)cc1	186 to 187

Now from value to compound:

melting point [°C]	SMILES
111 to 112	O=Cc1cccc(Sc2ccccc2Cl)c1O
114 to 115	COC(=O)Cc1ccc(OCC2CN(c3ccc(C#N)cc3)C(=O)O2)cc1 (centres undefined)
60	OC1c2cc(OCc3ccc4ccccc4n3)ccc2OCC1Cc1c[nH]c2ccccc12 (centres undefined)
283 to 286	CN(C)CCn1c2ccc(O)cc2c2c3c(c(-c4ccccc4)cc21)C(=O)NC3=O
223 to 225	COc1cc(OC(C)(C)C(=O)O)c(C=CC(=O)c2ccc(C(=O)O)cc2)cc1-c1cccs1
79 to 81	CCCCCCCCCCCCCCCCCCOc1ccc(OCCCOc2ccc(OCc3ccccc3)cc2)c(C(=O)OC)c1
145 to 147	O=C(O)CCOCCCc1ccc(-c2nc(=O)c3ccccc3s2)nc1
194	Cc1cc2cc(CN3CCCC3)cnc2cc1NC(=O)c1ccc(-c2ccc3ccccc3c2)cc1
123 to 124	O=C(CC(c1ccccc1)c1ccccc1)N1CCN(CCc2cc3ccccc3o2)CC1
167 to 168	Cc1ccc(S(=O)(=O)Nc2ccc([N+](=O)[O-])cc2Cl)cc1
120 to 121	CCOC(=O)c1cccc(-n2c(C)nc3cnccc32)c1
147 to 150	CCOC(=O)c1ccc(N2CCN(C(=O)C=Cc3cc(C(C)(C)C)c(O)c(C(C)(C)C)c3)CC2)cc1
168 to 170	CCC(CC)Cn1c(=O)c(=O)[nH]c2ccc(NC(C)=O)cc21
79 to 81	CCCc1c(SCCCOc2ccc(C(C)=O)c(OCCCC(=O)O)c2CCC)ccc(C(C)=O)c1O
110 to 111	O=Cc1ccc(OCCCCCCOc2ccc(C=O)cc2)cc1
265 to 268	O=C(Nc1ccc(Cl)cn1)c1cn2nc(N3CCN(C(=O)c4ccccc4C(F)(F)F)CC3)ccc2n1
210 to 212	CCCCc1ncc(/C=C(/C(=O)O)c2ccccc2)n1Cc1ccccc1Cl
158 to 168	COC(=O)[C@H](Cc1ccc(NC(=S)NCCN2CCOCC2)cc1)NC(=O)[C@@H]1CCCN1S(=O)(=O)c1ccc(C)cc1
52 to 53	Cc1cccc(C(=O)Cc2ccccc2)c1C

melting point [°C]	SMILES
141 to 145	CCCN(CCC)C1Cc2cc3c(cc2C1)C(=O)N(Cc1ccc(C#N)cc1)C3 (centres undefined)
84 to 89	COC(=O)c1ccc(N=Cc2ccccc2)cn1
179 to 181	Nc1ncc(CCCc2cccc3ccccc23)c(N)n1
251 to 253	O=C1NC(=O)C2(C(=O)N(Cc3ccc(Cl)c(Cl)c3)c3ccccc32)N1C(=O)c1ccccc1 (centres undefined)
133 to 135	O=S(=O)(NN=C(Cl)c1cc(Cl)ccc1Cl)c1ccccc1
47 to 49	CCOC(=O)CCc1cc(OCOC)nn1Cc1ccc(Cl)cc1Cl
> 250	O=C(O)Cn1c(=O)c(=O)[nH]c2ccc3ccc(-n4ccc(CN5CCN(C(c6ccccc6)c6ccccc6)CC5)c4)cc3c21
158 to 162	CC(C)C(=O)c1cn(Cc2c(F)cccc2F)c2sc(-c3ccc([N+](=O)[O-])cc3)c(CN(C)Cc3ccccc3)c2c1=O
160 to 165	Clc1ccc2c(C3CCN(CCCOc4cccc5[nH]ccc45)CC3)c[nH]c2c1Cl
264	Cc1cccc2cc(C(=O)Cn3ccnc3)ccc12
112 to 115	O=C(Cl)c1cccnc1Nc1cccc(Cl)c1
88 to 90	CCOC(=O)Oc1ccc(S(=O)(=O)N2c3cc(C(F)(F)F)ccc3-n3cccc3C2CC)cc1 (centres undefined)
216 to 218	CCOc1ccc(-c2nn(C(C)c3oc4ccccc4c(=O)c3-c3cccc(F)c3)c3ncnc(N)c23)cc1F (centres undefined)
217	CCc1c(-c2ccc3cn[nH]c3c2)cc(Nc2ccc(N3CCN(CC)CC3)cn2)c2nccn12
102	CN(C)Cc1ccc(CSCCNC(=O)NCCCN(C)CCN(Cc2ccc(F)cc2)c2ccccn2)o1
205 to 208	CCCCOc1cc2c(nc(O)n2Cc2ccccc2)c(N)n1
236 to 238	O=C(O)c1sc2cc(OCc3cccnc3)ccc2c1Sc1ccccc1
79 to 82	COc1ccc(/C=C/c2ccccc2)c(OC)c1OC
